Assays:
[1] = test system: cap-dependent translation; test: in vitro translation of (AG)10- and (UC)10-FF/HCV/Ren mRNA reporters in Krebs-2 extracts; format: biochemical; conditions: cap-proximal (AG)10 or (UC)10
Method: Rocaglates show differing mRNA targeting spectra in translation assays. The in vitro experiments described above investigating the rocaglate-mediated inhibition of cap-dependent translation were performed at a fixed rocaglate concentration (2 μM) using a generic bicistronic mRNA reporter in Krebs-2 cell-free translation extracts (FIG. 19C). To better assess the consequences of eIF4A:polypurine clamping on the initiation process, we designed a series of bicistronic reporters harboring cap-proximal polypurine tracks of varying lengths in their 5′ leader region (FIG. 22A). […] We reasoned that these reporters would provide a sensitized readout for rocaglate-induce clamping of eIF4A at this location.
We next tested the response of mRNA reporters containing cap-proximal (AG)10 or (UC)10 sequences (FIG. 22A). […] The difference in activity observed between CR-1-31-B (23) and silvestrol 1 was not restricted to cap-proximal polypurine tracks, but also observed with reporters where the polypurine/polypyrimidine tracks were situated 15 nt downstream from the cap (FIGS. 24A and 24B).
In Vitro Translation Assays. In vitro translation assays performed in Krebs-2 cell extracts were supplemented with 5 mM MgCl2, 30 mM Tris-HCl (pH 7.5), 1.5 mM ATP, 0.1 mM GTP, 0.6 mM CTP, 10 mM dipotassium creatine phosphate, 80 μg/mL creatine kinase, and 0.04 mM amino acids. The specified mRNA reporters were added to each reaction at a final concentration of 10 ng/μL. The translation reactions were incubated with or without compound for 60 minutes at 30° C. prior to the measurement of luciferase activities.
FIGS. 23A-23C. The presence of polypurines bases in mRNA 5′ leader regions are not universal predictors of rocaglate-responsiveness. FIG. 23A. Schematic diagram of FF/HCV/Ren mRNA reporters containing cap-proximal (AG) or (UC) dinucleotide repeats. 23B. Firefly and renilla luciferase activity in response to the indicated CR-1-31-B (23) concentrations (relative to DMSO controls) in Krebs-2 extracts programmed with 4 ng/uL of the indicated mRNAs. n=3±SD. 23C. Dose response of the indicated compounds in Krebs-2 extracts programmed with 4 ng/μL of the indicated mRNAs. n=3± SD.
FIG. 23. Dose-response of (AG)10- and (UC)10-FF/HCV/Ren mRNAs to CMLD011167, hippuristanol and pateamine A in vitro. Firefly and renilla luciferase activity in response to the indicated compound concentrations (relative to DMSO controls) in Krebs-2 extracts programmed with 4 ng/μL of the indicated mRNAs. n=3± SD.

eIF4A1:poly r(AG)8 RNA = target: T1, eIF4A1:poly r(AG)8 RNA (Homo sapiens, UniProt P60842); test: fluorescence polarization (FP) assay, eIF4A1 binding to FAM-labelled RNA; conditions: 500 nM eIF4A1, 10 nM FAM-labelled RNA, screen at 10 μM compound
T1 construct: His6 (N); made in house; host or cells: E. coli BL21 (DE3)
T1 sequence (P60842 whole entry, species assumed): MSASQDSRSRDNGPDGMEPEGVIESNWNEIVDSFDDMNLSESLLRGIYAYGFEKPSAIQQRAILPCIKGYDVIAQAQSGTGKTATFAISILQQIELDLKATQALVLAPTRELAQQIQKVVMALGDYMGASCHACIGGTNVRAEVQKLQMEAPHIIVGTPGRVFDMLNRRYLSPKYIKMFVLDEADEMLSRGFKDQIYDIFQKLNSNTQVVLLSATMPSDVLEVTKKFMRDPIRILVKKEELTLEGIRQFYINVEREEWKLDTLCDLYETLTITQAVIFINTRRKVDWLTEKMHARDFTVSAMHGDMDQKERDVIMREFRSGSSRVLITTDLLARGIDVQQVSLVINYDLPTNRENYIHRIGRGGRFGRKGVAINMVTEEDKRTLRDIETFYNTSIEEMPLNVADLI
Excerpt: Rocaglates similarly enhance RNA binding of eIF4A1 and eIF4A2. In order to rapidly evaluate the ability of rocaglates to stimulate binding of eIF4A to RNA, a fluorescence polarization (FP) assay using a FAM (fluorescein amidite)-labelled RNA probe (FIG. 18A) was used. […] Due to the high degree of shared amino acid identity between the two paralogs, their apparent similarity with respect to RNA binding activity and response to CR-1-31-B (23), and the fact that eIF4A1 is essential but eIF4A2 is not, eIF4A1 was used in the majority of our subsequent experiments.
Fluorescence Polarization (FP) Assays. Unless otherwise specified, eIF4A (500 nM) was incubated with 10 nM FAM-labelled RNA for 30 min in FP buffer (14.4 mM HEPES-NaOH (pH 8), 108 mM NaCl, 1 mM MgCl2, 14.4% glycerol, 0.1% DMSO, 2 mM DTT, 1 mM AMPPNP) at room temperature in black low volume 384 well plates (Corning 3820). FP readings were performed on a Pherastar FS microplate reader (BMG Labtech).
FIGS. 19A-19C. Rocaglate activity profiling. 19A. Assessing eIF4A1:poly r(AG)8 (SEQ ID NO: 2) RNA binding by FP in the presence of 10 μM rocaglate. Values are expressed relative to vehicle controls and data is rank ordered. n=3±SD. 19B. The change in polarization obtained with eIF4A1:poly r(AG)8 (SEQ ID NO: 2) and eIF4A2:poly r(AG)8 (SEQ ID NO: 2) RNA. Pearson r=0.814; p<0.0001. 19C. Inhibition of cap-dependent translation by rocaglates was measured using the indicated mRNA bicistronic reporter (4 ng/ul) in Krebs-2 extracts at a final compound concentration of 2 μM. n=3±SD.
FIG. 21. Assessing stimulation of eIF4A1:RNA binding by rocaglates and pateamine. FAM-labelled RNA was incubated in the presence of 500 nM eIF4A1 and the indicated concentrations of compound for 30 min, after which time FP measurements were taken. Limitations in WGD-57-591 availability prevented us from extending the titrations to 100 μM. The change in FP obtained relative to vehicle controls is presented. n=3±SD. FP results of competition assays in which preformed eIF4A1:rocaglate:FAM-poly r(AG)10 complexes were incubated in the presence of poly r(AG)10 (SEQ ID NO: 39) and dissociation measured as a function of time. n=3±SD.

Structure (SMILES) | inhibition of (AG)10 versus (UC)10 reporter in vitro (in words) [1] | stimulation of eIF4A1:RNA binding (in words) (eIF4A1:poly r(AG)8 RNA) | stimulation of eIF4A1:RNA binding (in words) (eIF4A1:poly r(AG)8 RNA; listed as Silvestrol)
COC(=O)[C@@H]1[C@@H](c2ccccc2)[C@]2(c3ccc(OC)cc3)Oc3cc(OC)cc(OC)c3[C@@]23N=C(C)N[C@@]13O [9b] | equally inhibited translation of both (AG)10 and (UC)10 reporters |  | 
CONC(=O)[C@H]1[C@@H](O)[C@@]2(O)c3c(OC)cc(OC)cc3O[C@@]2(c2ccc(OC)cc2)[C@@H]1c1ccccc1 [CR-1-31-B] | inhibited cap-dependent translation (FLuc) from only the (AG)10-containing mRNA | preferentially stimulated binding of eIF4A1 to RNA harboring polypurine bases | 
COc1ccc([C@@]23Oc4cc(OC)cc(OC)c4[C@]2(O)[C@H](O)[C@H](C(=O)N(C)C)[C@H]3c2ccccc2)cc1 [RocA, rocaglamide A] | inhibited cap-dependent translation (FLuc) from only the (AG)10-containing mRNA | activity similar to CR-1-31-B | 
COC(=O)[C@H]1[C@@H](O)[C@@]2(O)c3c(OC)cc(O[C@@H]4O[C@@H]([C@H](O)CO)CO[C@H]4OC)cc3O[C@@]2(c2ccc(OC)cc2)[C@@H]1c1ccccc1 [silvestrol] | equally inhibited both mRNA reporters | less potent across the concentrations tested | relatively weak activity
